Data taken from patent US20250352520A1, “USE OF DEXPRAMIPEXOLE FOR THE TREATMENT OF EOSINOPHILIC COPD” (Areteia Therapeutics, Inc., priority 2024, published 2025).
Where two headings read alike, the source gives them in different places.

Conditions: Week 4

## CCCN[C@@H]1CCc2nc(N)sc2C1 [Dexpramipexole, (6R)-2-amino-4,5,6,7-tetrahydro-6-(propylamino)benzothiazole]
<50% AEC reduction at Week 16
  Pre-BD FEF25-75 % change from baseline, Max: −9%
  Pre-BD FEF25-75 % change from baseline, Mean ± SD: −19.8 ± 9.58%
  Pre-BD FEF25-75 % change from baseline, Median: −19.3%
  Pre-BD FEF25-75 % change from baseline, Min: −32%
  Pre-BD FEF25-75 % change from baseline, Q1: −27%
  Pre-BD FEF25-75 % change from baseline, Q3: −13%
  Pre-BD FEF25-75 Observed, Max: 950 mL/s
  Pre-BD FEF25-75 Observed, Mean ± SD: 507.5 ± 333.30 mL/s
  Pre-BD FEF25-75 Observed, Median: 440.0 mL/s
  Pre-BD FEF25-75 Observed, Min: 200 mL/s
  Pre-BD FEF25-75 Observed, Q1: 255 mL/s
  Pre-BD FEF25-75 Observed, Q3: 760 mL/s
  Pre-BD FEF25-75 change from baseline, Max: -30 mL/s
  Pre-BD FEF25-75 change from baseline, Mean ± SD: -167.5 ± 191.03 mL/s
  Pre-BD FEF25-75 change from baseline, Median: -100.0 mL/s
  Pre-BD FEF25-75 change from baseline, Min: -440 mL/s
  Pre-BD FEF25-75 change from baseline, Q1: -300 mL/s
  Pre-BD FEF25-75 change from baseline, Q3: -35 mL/s
  Pre-BD FEV1 % change from baseline, Max: −1%
  Pre-BD FEV1 % change from baseline, Mean ± SD: −16.4 ± 15.81%
  Pre-BD FEV1 % change from baseline, Median: −13.3%
  Pre-BD FEV1 % change from baseline, Min: −37%
  Pre-BD FEV1 % change from baseline, Q1: −28%
  Pre-BD FEV1 % change from baseline, Q3: −4%
  Pre-BD FEV1 Observed, Max: 1680 mL
  Pre-BD FEV1 Observed, Mean ± SD: 1260.0 ± 511.53 mL
  Pre-BD FEV1 Observed, Median: 1420.0 mL
  Pre-BD FEV1 Observed, Min: 520 mL
  Pre-BD FEV1 Observed, Q1: 935 mL
  Pre-BD FEV1 Observed, Q3: 1585 mL
  Pre-BD FEV1 change from baseline, Max: -20 mL
  Pre-BD FEV1 change from baseline, Mean ± SD: -212.5 ± 173.47 mL
  Pre-BD FEV1 change from baseline, Median: -215.0 mL
  Pre-BD FEV1 change from baseline, Min: -400 mL
  Pre-BD FEV1 change from baseline, Q1: -355 mL
  Pre-BD FEV1 change from baseline, Q3: -70 mL
  Pre-BD FVC % change from baseline, Max: 0%
  Pre-BD FVC % change from baseline, Mean ± SD: −9.0 ± 13.97%
  Pre-BD FVC % change from baseline, Median: −2.9%
  Pre-BD FVC % change from baseline, Min: −30%
  Pre-BD FVC % change from baseline, Q1: −17%
  Pre-BD FVC % change from baseline, Q3: −1%
  Pre-BD FVC Observed, Max: 3480 mL
  Pre-BD FVC Observed, Mean ± SD: 2755.0 ± 729.41 mL
  Pre-BD FVC Observed, Median: 2875.0 mL
  Pre-BD FVC Observed, Min: 1790 mL
  Pre-BD FVC Observed, Q1: 2215 mL
  Pre-BD FVC Observed, Q3: 3295 mL
  Pre-BD FVC change from baseline, Max: -10 mL
  Pre-BD FVC change from baseline, Mean ± SD: -240.0 ± 350.90 mL
  Pre-BD FVC change from baseline, Median: -95.0 mL
  Pre-BD FVC change from baseline, Min: -760 mL
  Pre-BD FVC change from baseline, Q1: -450 mL
  Pre-BD FVC change from baseline, Q3: -30 mL
  Pre-BD Peak Flow % change from baseline, Max: 428%
  Pre-BD Peak Flow % change from baseline, Mean ± SD: 90.4 ± 224.72%
  Pre-BD Peak Flow % change from baseline, Median: −20.4%
  Pre-BD Peak Flow % change from baseline, Min: −25%
  Pre-BD Peak Flow % change from baseline, Q1: −24%
  Pre-BD Peak Flow % change from baseline, Q3: 205%
  Pre-BD Peak Flow Observed, Max: 211 L/min
  Pre-BD Peak Flow Observed, Mean ± SD: 167.5 ± 49.57 L/min
  Pre-BD Peak Flow Observed, Median: 180.5 L/min
  Pre-BD Peak Flow Observed, Min: 98 L/min
  Pre-BD Peak Flow Observed, Q1: 133 L/min
  Pre-BD Peak Flow Observed, Q3: 202 L/min
  Pre-BD Peak Flow change from baseline, Max: 171 L/min
  Pre-BD Peak Flow change from baseline, Mean ± SD: 11.0 ± 107.23 L/min
  Pre-BD Peak Flow change from baseline, Median: -35.5 L/min
  Pre-BD Peak Flow change from baseline, Min: -56 L/min
  Pre-BD Peak Flow change from baseline, Q1: -49 L/min
  Pre-BD Peak Flow change from baseline, Q3: 71 L/min
>=50% AEC reduction at Week 16
  Pre-BD FEF25-75 % change from baseline, Max: 41%
  Pre-BD FEF25-75 % change from baseline, Mean ± SD: 11.4 ± 25.76%
  Pre-BD FEF25-75 % change from baseline, Median: −2.2%
  Pre-BD FEF25-75 % change from baseline, Min: −5%
  Pre-BD FEF25-75 % change from baseline, Q1: −5%
  Pre-BD FEF25-75 % change from baseline, Q3: 41%
  Pre-BD FEF25-75 Observed, Max: 1030 mL/s
  Pre-BD FEF25-75 Observed, Mean ± SD: 710.0 ± 446.43 mL/s
  Pre-BD FEF25-75 Observed, Median: 900.0 mL/s
  Pre-BD FEF25-75 Observed, Min: 200 mL/s
  Pre-BD FEF25-75 Observed, Q1: 200 mL/s
  Pre-BD FEF25-75 Observed, Q3: 1030 mL/s
  Pre-BD FEF25-75 change from baseline, Max: 300 mL/s
  Pre-BD FEF25-75 change from baseline, Mean ± SD: 90.0 ± 181.93 mL/s
  Pre-BD FEF25-75 change from baseline, Median: -10.0 mL/s
  Pre-BD FEF25-75 change from baseline, Min: -20 mL/s
  Pre-BD FEF25-75 change from baseline, Q1: -20 mL/s
  Pre-BD FEF25-75 change from baseline, Q3: 300 mL/s
  Pre-BD FEV1 % change from baseline, Max: 62%
  Pre-BD FEV1 % change from baseline, Mean ± SD: 24.8 ± 32.69%
  Pre-BD FEV1 % change from baseline, Median: 9.7%
  Pre-BD FEV1 % change from baseline, Min: 2%
  Pre-BD FEV1 % change from baseline, Q1: 2%
  Pre-BD FEV1 % change from baseline, Q3: 62%
  Pre-BD FEV1 Observed, Max: 2110 mL
  Pre-BD FEV1 Observed, Mean ± SD: 1540.0 ± 678.16 mL
  Pre-BD FEV1 Observed, Median: 1720.0 mL
  Pre-BD FEV1 Observed, Min: 790 mL
  Pre-BD FEV1 Observed, Q1: 790 mL
  Pre-BD FEV1 Observed, Q3: 2110 mL
  Pre-BD FEV1 change from baseline, Max: 810 mL
  Pre-BD FEV1 change from baseline, Mean ± SD: 306.7 ± 436.16 mL
  Pre-BD FEV1 change from baseline, Median: 70.0 mL
  Pre-BD FEV1 change from baseline, Min: 40 mL
  Pre-BD FEV1 change from baseline, Q1: 40 mL
  Pre-BD FEV1 change from baseline, Q3: 810 mL
  Pre-BD FVC % change from baseline, Max: 32%
  Pre-BD FVC % change from baseline, Mean ± SD: 15.7 ± 14.81%
  Pre-BD FVC % change from baseline, Median: 11.4%
  Pre-BD FVC % change from baseline, Min: 3%
  Pre-BD FVC % change from baseline, Q1: 3%
  Pre-BD FVC % change from baseline, Q3: 32%
  Pre-BD FVC Observed, Max: 3330 mL
  Pre-BD FVC Observed, Mean ± SD: 2790.0 ± 497.59 mL
  Pre-BD FVC Observed, Median: 2690.0 mL
  Pre-BD FVC Observed, Min: 2350 mL
  Pre-BD FVC Observed, Q1: 2350 mL
  Pre-BD FVC Observed, Q3: 3330 mL
  Pre-BD FVC change from baseline, Max: 810 mL
  Pre-BD FVC change from baseline, Mean ± SD: 380.0 ± 379.87 mL
  Pre-BD FVC change from baseline, Median: 240.0 mL
  Pre-BD FVC change from baseline, Min: 90 mL
  Pre-BD FVC change from baseline, Q1: 90 mL
  Pre-BD FVC change from baseline, Q3: 810 mL
  Pre-BD Peak Flow % change from baseline, Max: 143%
  Pre-BD Peak Flow % change from baseline, Mean ± SD: 63.4 ± 69.42%
  Pre-BD Peak Flow % change from baseline, Median: 28.2%
  Pre-BD Peak Flow % change from baseline, Min: 18%
  Pre-BD Peak Flow % change from baseline, Q1: 18%
  Pre-BD Peak Flow % change from baseline, Q3: 143%
  Pre-BD Peak Flow Observed, Max: 382 L/min
  Pre-BD Peak Flow Observed, Mean ± SD: 260.7 ± 108.49 L/min
  Pre-BD Peak Flow Observed, Median: 227.0 L/min
  Pre-BD Peak Flow Observed, Min: 173 L/min
  Pre-BD Peak Flow Observed, Q1: 173 L/min
  Pre-BD Peak Flow Observed, Q3: 382 L/min
  Pre-BD Peak Flow change from baseline, Max: 225 L/min
  Pre-BD Peak Flow change from baseline, Mean ± SD: 100.7 ± 108.29 L/min
  Pre-BD Peak Flow change from baseline, Median: 50.0 L/min
  Pre-BD Peak Flow change from baseline, Min: 27 L/min
  Pre-BD Peak Flow change from baseline, Q1: 27 L/min
  Pre-BD Peak Flow change from baseline, Q3: 225 L/min
